Assay results: patent US5980913A, “Peptides having immunomodulatory activity” (Biochem Pharma, Inc., priority 1994, dated 1999)
Where a SMILES comes first, the peptide text is derived from it.

Legend:
[1] = test system: spleen cell subsets (cell surface antigens); experiment: In vivo/ex vivo immunophenotyping in the spleen, mice treated 4 consecutive days; design: species or system C57BL/6 mice
Procedure: C57BL.backslash.6 mice are treated with 0, 50, 100, 200, and 300 mg/kg of drug (in saline) for 4 consecutive days. Blood is taken by cardiac puncture on day 5, and the lymphocytes are isolated from spleen in the following manner:
The spleen is aseptically removed and mashed by pressing against a steel strainer with a rubber plunger. The cell suspension is separated from the clumps by letting them settle at the bottom of the tube. The cell suspension is then separated on a Lymphocyte M layer and the interface is recovered and resuspended in media.
1. Immunophenotyping (blood and spleen)
Cell immunophenotyping is performed on blood and spleen. The following cell surface antigens are analyzed:
CD4 (T helper/inducer, binds class II-restricted T cells);
CD8 (cytotoxic T cells, CTL adhesion);
MAC-1 (monocyte/macrophage);
NK (natural killer cells);
CD45 (all leukocytes, protein tyrosine phosphatase).

T cells = experiment: Activation of T cells by mitogenic proliferation (ConA, PHA); format: cell-based, C57BL/6 mice; details: concentration not given; 0 not defined
From the text: c) Activation of T or B cells by Mitogenic Proliferation
A mitogenic lectin (mitogen) is a glycoprotein which binds and cross-links specific cells surface carbohydrate determinants, and will polyclonally stimulate lymphoid cells. Lymphocyte activation by either antigens or mitogens results in intracellular changes and the subsequent development into a lymphoblast. Mitogenic stimulation of lymphocytes in vitro is believed to mimic the series of events which occur in vivo following their stimulation by specific antigens. PHA and ConA; PWM and LPS mitogens can be used as a measurement of T cell and B cell activity, respectively. Briefly, the spleen mononuclear leukocytes from C57BL/6 mice are incubated in the presence or absence of mitogens with or without candidate drugs. After 72 hours or 5 days, ^3 H-thymidine incorporation is recorded as an indication of cell proliferation.
Lymphocytes were isolated from mice spleen or human blood in accordance to methods well known in the art. 100 μl of cell suspension of 2×10^6 cells/ml was added per well (2x10^5 cells/well) and incubated in the presence of lectin at the following concentrations:
PHA=0.01% to 0.001% final concentration
Cells were incubated for 3 days with PHA or ConA, or 5 days with PWM or LPS. 1 μCi of tritiated thymidine was added to each well for the last 6 hours (or 0.5 μCi for 18 hrs). The cells were harvested in a cell Harvester (Tortech®) and counted in a Beta counter.

In the case of `NCCCC[C@H](N)C(=O)N[C@@H](CC(N)=O)C(=O)N1CCC[C@H]1C(=O)N[C@@H](Cc1ccc(O)cc1)C(=O)O` [PEPTIDE #1, H-Lys-Asn-Pro-Tyr-OH] (H-KNPY-OH), the “B cell subset, relative percentage” value ([1]; 50 mg/kg) is reported as 11.60, the “CD4+ CD8+ cell subset, relative percentage” value ([1]; 50 mg/kg) is reported as 1.10 and the “CD4+ CD8- cell subset, relative percentage” value ([1]; 50 mg/kg) is reported as 38.30. The “CD4+ CD11+ cell subset, relative percentage” value ([1]; 50 mg/kg) was 0.17, the “CD4+ CD11- cell subset, relative percentage” value ([1]; 50 mg/kg) was 18.47 and the “CD4+ CD45+ cell subset, relative percentage” value ([1]; 50 mg/kg) was 33.30. For the same compound, the “CD4+ CD45- cell subset, relative percentage” value ([1]; 50 mg/kg) was 6.10, the “CD4- CD8+ cell subset, relative percentage” value ([1]; 50 mg/kg) was 16.15 and the “CD4- CD8- cell subset, relative percentage” value ([1]; 50 mg/kg) was 44.45. For the same compound, the “CD4- CD11+ cell subset, relative percentage” value ([1]; 50 mg/kg) was 1.20, the “CD4- CD11- cell subset, relative percentage” value ([1]; 50 mg/kg) was 80.17 and the “CD4- CD45+ cell subset, relative percentage” value ([1]; 50 mg/kg) was 58.65. The “CD4- CD45- cell subset, relative percentage” value ([1]; 50 mg/kg) was 1.95, the “CD8+ CD45+ cell subset, relative percentage” value ([1]; 50 mg/kg) was 16.90 and the “CD8+ CD45- cell subset, relative percentage” value ([1]; 50 mg/kg) was 0.10. For the same compound, the “CD8- CD45+ cell subset, relative percentage” value ([1]; 50 mg/kg) was 73.15, the “CD8- CD45- cell subset, relative percentage” value ([1]; 50 mg/kg) was 9.85 and the “CD45-8 cell subset, relative percentage” value ([1]; 50 mg/kg) was 60.70. The “CD45- Th1 cell subset, relative percentage” value ([1]; 50 mg/kg) was 39.10, the “NK+ CD3+ cell subset, relative percentage” value ([1]; 50 mg/kg) was 4.70 and the “NK+ CD3- cell subset, relative percentage” value ([1]; 50 mg/kg) was 7.47. For the same compound, the “NK- CD3+ cell subset, relative percentage” value ([1]; 50 mg/kg) was 42.80, the “NK- CD3- cell subset, relative percentage” value ([1]; 50 mg/kg) was 45.10 and the “B cell subset, relative percentage” value ([1]; 100 mg/kg) was 14.97. For the same compound, the “CD4+ CD8+ cell subset, relative percentage” value ([1]; 100 mg/kg) was 2.40, the “CD4+ CD8- cell subset, relative percentage” value ([1]; 100 mg/kg) was 32.30 and the “CD4+ CD11+ cell subset, relative percentage” value ([1]; 100 mg/kg) was 0.20. For the same compound, the “CD4+ CD11- cell subset, relative percentage” value ([1]; 100 mg/kg) was 18.23, the “CD4+ CD45+ cell subset, relative percentage” value ([1]; 100 mg/kg) was 30.90 and the “CD4+ CD45- cell subset, relative percentage” value ([1]; 100 mg/kg) was 3.80. For the same compound, the “CD4- CD8+ cell subset, relative percentage” value ([1]; 100 mg/kg) was 12.45, the “CD4- CD8- cell subset, relative percentage” value ([1]; 100 mg/kg) was 52.85 and the “CD4- CD11+ cell subset, relative percentage” value ([1]; 100 mg/kg) was 1.53. For the same compound, the “CD4- CD11- cell subset, relative percentage” value ([1]; 100 mg/kg) was 80.07, the “CD4- CD45+ cell subset, relative percentage” value ([1]; 100 mg/kg) was 61.45 and the “CD4- CD45- cell subset, relative percentage” value ([1]; 100 mg/kg) was 3.85. The “CD8+ CD45+ cell subset, relative percentage” value ([1]; 100 mg/kg) was 14.25, the “CD8+ CD45- cell subset, relative percentage” value ([1]; 100 mg/kg) was 0.05 and the “CD8- CD45+ cell subset, relative percentage” value ([1]; 100 mg/kg) was 76.35. For the same compound, the “CD8- CD45- cell subset, relative percentage” value ([1]; 100 mg/kg) was 9.35, the “CD45-8 cell subset, relative percentage” value ([1]; 100 mg/kg) was 65.55 and the “CD45- Th1 cell subset, relative percentage” value ([1]; 100 mg/kg) was 34.55. The “NK+ CD3+ cell subset, relative percentage” value ([1]; 100 mg/kg) was 4.40, the “NK+ CD3- cell subset, relative percentage” value ([1]; 100 mg/kg) was 7.93 and the “NK- CD3+ cell subset, relative percentage” value ([1]; 100 mg/kg) was 41.50. For the same compound, the “NK- CD3- cell subset, relative percentage” value ([1]; 100 mg/kg) was 46.20, the “B cell subset, relative percentage” value ([1]; 200 mg/kg) was 16.33 and the “CD4+ CD8+ cell subset, relative percentage” value ([1]; 200 mg/kg) was 2.27. The “CD4+ CD8- cell subset, relative percentage” value ([1]; 200 mg/kg) was 29.50, the “CD4+ CD11+ cell subset, relative percentage” value ([1]; 200 mg/kg) was 0.20 and the “CD4+ CD11- cell subset, relative percentage” value ([1]; 200 mg/kg) was 20.03. The “CD4+ CD45+ cell subset, relative percentage” value ([1]; 200 mg/kg) was 27.98, the “CD4+ CD45- cell subset, relative percentage” value ([1]; 200 mg/kg) was 3.77 and the “CD4- CD8+ cell subset, relative percentage” value ([1]; 200 mg/kg) was 12.49. The “CD4- CD8- cell subset, relative percentage” value ([1]; 200 mg/kg) was 40.94, the “CD4- CD11+ cell subset, relative percentage” value ([1]; 200 mg/kg) was 1.53 and the “CD4- CD11- cell subset, relative percentage” value ([1]; 200 mg/kg) was 78.27. The “CD4- CD45+ cell subset, relative percentage” value ([1]; 200 mg/kg) was 43.44, the “CD4- CD45- cell subset, relative percentage” value ([1]; 200 mg/kg) was 2.31 and the “CD8+ CD45+ cell subset, relative percentage” value ([1]; 200 mg/kg) was 12.36. The “CD8+ CD45- cell subset, relative percentage” value ([1]; 200 mg/kg) was 0.04, the “CD8- CD45+ cell subset, relative percentage” value ([1]; 200 mg/kg) was 62.30 and the “CD8- CD45- cell subset, relative percentage” value ([1]; 200 mg/kg) was 7.32. The “CD45-8 cell subset, relative percentage” value ([1]; 200 mg/kg) was 53.14, the “CD45- Th1 cell subset, relative percentage” value ([1]; 200 mg/kg) was 31.64 and the “NK+ CD3+ cell subset, relative percentage” value ([1]; 200 mg/kg) was 5.27. For the same compound, the “NK+ CD3- cell subset, relative percentage” value ([1]; 200 mg/kg) was 8.07, the “NK- CD3+ cell subset, relative percentage” value ([1]; 200 mg/kg) was 44.33 and the “NK- CD3- cell subset, relative percentage” value ([1]; 200 mg/kg) was 42.33. For the same compound, the “B cell subset, relative percentage” value ([1]; 300 mg/kg) was 14.60, the “CD4+ CD8+ cell subset, relative percentage” value ([1]; 300 mg/kg) was 4.33 and the “CD4+ CD8- cell subset, relative percentage” value ([1]; 300 mg/kg) was 34.30. For the same compound, the “CD4+ CD11+ cell subset, relative percentage” value ([1]; 300 mg/kg) was 0.53, the “CD4+ CD11- cell subset, relative percentage” value ([1]; 300 mg/kg) was 20.53 and the “CD4+ CD45+ cell subset, relative percentage” value ([1]; 300 mg/kg) was 35.00. The “CD4+ CD45- cell subset, relative percentage” value ([1]; 300 mg/kg) was 3.67, the “CD4- CD8+ cell subset, relative percentage” value ([1]; 300 mg/kg) was 16.17 and the “CD4- CD8- cell subset, relative percentage” value ([1]; 300 mg/kg) was 45.20. For the same compound, the “CD4- CD11+ cell subset, relative percentage” value ([1]; 300 mg/kg) was 2.23, the “CD4- CD11- cell subset, relative percentage” value ([1]; 300 mg/kg) was 76.67 and the “CD4- CD45+ cell subset, relative percentage” value ([1]; 300 mg/kg) was 57.40. The “CD4- CD45- cell subset, relative percentage” value ([1]; 300 mg/kg) was 3.97, the “CD8+ CD45+ cell subset, relative percentage” value ([1]; 300 mg/kg) was 19.77 and the “CD8+ CD45- cell subset, relative percentage” value ([1]; 300 mg/kg) was 0.03. For the same compound, the “CD8- CD45+ cell subset, relative percentage” value ([1]; 300 mg/kg) was 69.93, the “CD8- CD45- cell subset, relative percentage” value ([1]; 300 mg/kg) was 10.30 and the “CD45-8 cell subset, relative percentage” value ([1]; 300 mg/kg) was 61.63. For the same compound, the “CD45- Th1 cell subset, relative percentage” value ([1]; 300 mg/kg) was 38.43, the “NK+ CD3+ cell subset, relative percentage” value ([1]; 300 mg/kg) was 9.47 and the “NK+ CD3- cell subset, relative percentage” value ([1]; 300 mg/kg) was 10.83. For the same compound, the “NK- CD3+ cell subset, relative percentage” value ([1]; 300 mg/kg) was 41.10, the “NK- CD3- cell subset, relative percentage” value ([1]; 300 mg/kg) was 38.63 and the “change of relative percentage of CD8+CD45+ (cytotoxic T cells) subset (in words)” value ([1]; 200 and 300 mg/kg) was “significant increase”. For the same compound, the “change of relative percentage of NK+CD3+ (NK cells) subset (in words)” value ([1]; 200 and 300 mg/kg) was “significant increase”, the “Activation of T Cells, ConA” value (T cells) was 0 and the “Activation of T Cells, PHA” value (T cells) was 0.
